Values joined by “and” are separate entries in the source; they are usually repeats but may differ in a detail not shown here. Equal values may be shown once.
System: eIF2-GTP-Met-tRNAi ternary complex
Assay: Ternary complex assay (dual luciferase, firefly/renilla ratio) in stable KLN-tTA/pBISA-DL(ATF-4) cells; HTS and hit confirmation
Format: cell-based, mouse
Set-up: Activity 10 uM / Activity 2.5 uM / Activity 5 uM: unit not given here
Conditions: confirmed hits of the screen (Table 5); for Activity 5 uM: compound at 5 uM; for Activity 10 uM: compound at 10 uM; for Activity 2.5 uM: compound at 2.5 uM

| SMILES | Activity 5 uM | Activity 10 uM | Activity 2.5 uM |
| --- | --- | --- | --- |
| c1ccc2ncc(-c3ccc4ccccc4n3)cc2c1 [Compound 159209] | 4.3 | 8.5 | – |
| COC(=O)C1=C(C(=O)OC)C2(C)OC1c1ccccc12 (centres unmarked) [Compound 380207] | – | – | 0.47 and 0.3615 |
| CO[C@H]1/C=C/O[C@@]2(C)Oc3c(C)c(O)c4c(O)c(c(/C=N/N5CCN(Cc6cccc(C(F)(F)F)c6)CC5)c(O)c4c3C2=O)NC(=O)/C(C)=C\C=C\[C@H](C)[C@H](O)[C@@H](C)[C@@H](O)[C@@H](C)[C@H](OC(C)=O)[C@@H]1C [Compound 173710] | – | 16.35 | 0.83 |
| [Cl][Sn]([CH2][Sn]([Cl])([c]1ccccc1)[c]1ccccc1)([c]1ccccc1)[c]1ccccc1 [Compound 356110] | 2.4 | 3.9 | – |
| N#C/C(=C(\c1ccccc1)c1ccccn1)c1ccccc1 [Compound 50915] | – | 7.81 | 1.11 |
| [CH3][Hg][O]C(C)=O [Compound 176145] | – | – | 3.81 |
| CCS(=O)(=O)/C=C/c1ccc2ccccc2n1 [Compound 202491] | – | 3.05 | 0.5 |
| Nc1cc2c(cc1-n1cccc1)oc1ccccc12 [Compound 347204] | 4.246 | 6.6455 | – |
| O=[N+]([O-])c1ccccc1N/N=C\c1c[nH]c2ccccc12 [Compound 135854] | – | 5.75 | 3.56 |
| [Cl][Sn]([CH2][CH2][Sn]([Cl])([c]1ccccc1)[c]1ccccc1)([c]1ccccc1)[c]1ccccc1 [Compound 620291] | – | 9.07 | 8.39 |
| Cc1nc(Nc2cccc(Cl)c2)c2cnn(-c3ccc(Cl)cc3)c2n1 [Compound 1626] | – | 5.31 | 0.79 |
| C/C(=N/O)c1ccc2c(c1)C(=NO)c1cc(/C(C)=N/O)ccc1-2 [Compound 642485] | – | 3.59 | 1.93 |
| CCOC(=O)c1cnc(SCc2ccccc2)nc1N [Compound 72266] | 2.946 | 3.233 | – |
| CCCCCC[N+](CCCCCC)(CCCCCC)CCCCCC.O=C([O-])c1ccccc1 [Compound 152111] | 10.85 | 10.391 | – |
| CC1(C)CN=C(NN=C(C=Cc2ccc(C(F)(F)F)cc2)C=Cc2ccc(C(F)(F)F)cc2)NC1 [Compound 379665] | – | 35.03 | 1.08 |
| c1ccc2c(c1)cnc1cc3c(cc12)ncc1ccccc13 [Compound 113085] | – | 5.05 | 3.18 |
| c1ccc(-c2ccc(-c3csnn3)cc2)cc1 [Compound 298243] | 2.747 | 3.327 | – |
| O=C(Nc1ncc([N+](=O)[O-])s1)c1cccnc1 [Compound 276393] | 6.644 | 8.706 | – |
| Cc1ccc(-c2nc(C#N)c(C#N)nc2-c2ccc(C)cc2)cc1 [Compound 174794] | 24.857 | 33.869 | – |
| C[N+](C)=C1C=CC(=C2C=C(c3ccccc3)Oc3ccccc32)C=C1 [Compound 55869] | 13.24 | 13.613 | – |
| CN1c2cccc[c]2[Sn]([CH3])([CH3])[c]2ccccc21 [Compound 118028] | – | 4.1 | – |
| O=C(CCl)N1c2ccccc2Sc2ccccc21 [Compound 71676] | 2.922 | 4.1015 | – |

| SMILES | Activity 5 uM | Activity 10 uM | Activity 2.5 uM |
| --- | --- | --- | --- |
| Br.CCC1=C(C)/C(=C/c2[nH]c(C)c(CC)c2C)N=C1C [Compound 26672] | – | 57.61 | 1.44 |
| Oc1ccc(-c2nnc(-c3ccc(O)cc3)nn2)cc1 [Compound 174877] | – | 3.29 | 3.04 |
| CN(C)c1ccc(C(=O)Cc2ccc3ccccc3n2)cc1 [Compound 240577] | – | 4.63 | 2.68 |
| Cc1ccc2c(O)c3c(cc2c1O)C(=O)c1ccccc1C3=O [Compound 374924] | – | 6.35 | 2.1 |
| S=C(N=Nc1ccccc1)N[N-]c1ccccc1.S=C(N=Nc1ccccc1)N[N-]c1ccccc1.[Zn+2] [Compound 293939] | – | 7.78 | 1.54 |
| [Pt].c1ccc(P(CCP(CCP(c2ccccc2)c2ccccc2)CCP(c2ccccc2)c2ccccc2)c2ccccc2)cc1 [Compound 635030] | – | 71.33 | 1.68 |
| Cc1cc[c]([Hg][S]C(=S)NNc2ccccc2)cc1 [Compound 631946] | – | – | 13.13 |
| CCN1/C(=C\c2ccc3cc(C)ccc3[n+]2CC)[Se]c2ccccc21.[I-] [Compound 119675] | – | 8.78 | 5.52 |
| O=C(/C=C(\CN1CCCCC1)c1ccccc1)c1ccccc1 [Compound 150320] | 19.9 | 16.4 | – |
| CC(=O)OCC1OC(n2nnc(CCl)c2CCl)C(OC(C)=O)C(OC(C)=O)C1OC(C)=O (centres unmarked) [Compound 268393] | – | – | 0.71 |
| Cc1cc[n+](C2CCC3(C)C(=CCC4C3CCC3(C)C(C(C)CCCC(C)C)CCC43)C2)cc1.Cc1ccc(S(=O)(=O)[O-])cc1 (centres unmarked) [Compound 32994] | – | 6.52 | 2.83 |
| C/C(=N\NC(=S)Nc1nccs1)c1ccccn1 [Compound 354087] | – | 10.14 | 2.65 |
| COc1ccc(N=c2nc3n4c(c(Br)cc(Br)c4n2)NC(C(Br)(Br)Br)=N3)cc1 [Compound 366233] | – | 30.55 | 17.26 |
| Cc1cccc(-c2ncc(-c3ccccc3)o2)c1 [Compound 90777] | 6.553 | 8.406 | – |
| CCc1ccc(N=Nc2ccccc2)cc1 [Compound 106344] | 3.1 | 4.1 | – |
| O=C(Cc1ccccc1)c1ccc2c3c(ccc([N+](=O)[O-])c13)CC2 [Compound 142606] | – | 34.1 | 16.57 |
| CC(=O)c1cccc(N=NNc2cccc(C(C)=O)c2)c1 [Compound 85646] | 3.127 | 4.18 | – |
| Br.CCCCCCCCCCCCNCCCc1ccccc1 [Compound 402291] | – | 4.43 | 0.73 |
| O=[N+]([O-])c1cc(Cl)ccc1NC(Nc1ccc(Cl)cc1[N+](=O)[O-])C(Cl)(Cl)Cl [Compound 130140] | – | 19.67 | 0.74 |
| CC(=O)Oc1c2c(c(CC=C(C)C)c3c1C(=O)C1=CC4CC5C(C)(C)OC(C/C=C(/C)C(=O)O)(C4=O)C15O3)OC(C)(CCC=C(C)C)C=C2 (centres unmarked) [Compound 139221] | 2.1 | 9 | – |
| CCCCCCCCC(N)CCCCCCCC.Cl [Compound 14209] | – | 14.32 | 0.85 |
| C/C(=N\NC(=S)N1CCN(C2CCCCCC2)CC1)c1ccccn1 [Compound 376265] | – | 7.26 | 2.72 |

| SMILES | Activity 5 uM | Activity 10 uM | Activity 2.5 uM |
| --- | --- | --- | --- |
| O=C(Nc1ccc2ccccc2c1)c1ccc(F)cc1 [Compound 214041] | 6.705 | 8.374 | – |
| ClCCN(CCCl)c1ccc(C(Cl)(c2ccc(N(CCCl)CCCl)cc2)c2ccc(N(CCCl)CCCl)cc2)cc1 [Compound 89864] | 9.4 | 10.1 | – |
| Cc1ccc(NNc2ccc(C)cc2)cc1 [Compound 86544] | 3.954 | 4.845 | – |
| O=C(Nc1ccc(Cl)cc1)C(Cl)C(Cl)c1ccccc1 (centres unmarked) [Compound 54895] | 4.288 | 4.975 | – |
| CN(C(=[Se])[Se]C(=[Se])N(C)C1CCCCC1)C1CCCCC1 [Compound 369741] | – | 6.34 | 0.96 |
| CC(=O)Nc1ccccc1[As](O[As](c1ccccc1)c1ccccc1NC(C)=O)c1ccccc1 (centres unmarked) [Compound 42108] | – | 3.7 | – |
| CCCCCCCCCCCCCCNC(=O)C[N+](C)(C)Cc1ccccc1.[Cl-] [Compound 141112] | – | 3.76 | 0.98 |
| COC1=C2C=[N+](C)C3C(=C2C=CC1OC)Cc1cc2c(cc13)OCO2.O=[N+](O)O (centres unmarked) [Compound 103755] | 3.09 | 3.394 | – |
| Cc1ccc2c(c1)sc(-c1ccc(N(C)C)cc1)[n+]2C.[Cl-] [Compound 11235] | – | – | 4.88 and 7.3 |
| ClCCN(CCCl)c1ccc(C2=Nc3cccc4cccc(c34)N2)cc1 [Compound 78577] | – | 3.56 | 0.74 |
| CC(C)[N+](=C1O[B-](c2ccccc2)(c2ccccc2)O[B-]1(c1ccccc1)[C+]1CCCCC1)C(C)C (centres unmarked) [Compound 344506] | – | 5.08 | 0.69 |
| O=C(Nc1ccc2ccccc2c1)c1ccc(Cl)cc1 [Compound 205530] | – | 3.34 | 3.08 |
| CCN(CCO)c1ccc(N=Nc2ccc([N+](=O)[O-])cc2)cc1 [Compound 57019] | 5.388 | 5.441 | – |
| Cl.Cn1c(N)nc(-c2ccc(Cl)cc2)c1SSc1c(-c2ccc(Cl)cc2)nc(N)n1C [Compound 658830] | – | 4.21 | 0.48 |
| CC(C)(C)c1ccc(C(=O)C[n+]2ccc(Cl)c3ccc(Cl)cc32)cc1.[Br-] [Compound 402826] | – | 5.42 | 0.85 |
| CNc1c(F)cc(N=Nc2ccccc2)cc1F [Compound 83335] | – | 3.31 | 2.77 |
| COc1ccc(-c2nc(Nc3ccccc3)sc2Cc2sc(Nc3ccccc3)nc2-c2ccc(OC)cc2)cc1 [Compound 658163] | – | 4.46 | 2.63 |
| O=C1C(c2c[nH]c3ccccc23)=Nc2ccc(Br)cc21 [Compound 105326] | – | – | 9.56 |
| CN1c2ccccc2C(c2ccccc2)c2ccc(Nc3ccccc3)cc21.Cl (centres unmarked) [Compound 35730] | – | 6.76 | 5.35 |
| O=C(CCl)Nc1cc(Cl)ccc1Cl [Compound 8275] | – | – | 0.81 |

Reference: patent US9932300B2, “N,N′-diarylurea compounds and N,N′-diarylthiourea compounds as inhibitors of translation initiation” (President and Fellows of Harvard College, priority 2009, dated 2018)
